Assay results as given in ChEMBL document CHEMBL1255497, “Azole resistance profile of amino acid changes in Aspergillus fumigatus CYP51A based on protein homology modeling” (2010).
Values after ≈ are worked out from the molar mass of the structure shown.

Legend:
[1] = test system: Aspergillus fumigatus; experiment: Antimicrobial activity against itraconazole-resistant Aspergillus fumigatus clinical isolate expressing cyp51A L98H, F495I mutant gene by CLSI method; assay type: functional
[2] = test system: Aspergillus fumigatus; experiment: Antimicrobial activity against itraconazole-resistant Aspergillus fumigatus clinical isolate expressing wild type cyp51A gene by CLSI method; assay type: functional
[3] = test system: Aspergillus fumigatus; experiment: Antimicrobial activity against itraconazole-susceptible Aspergillus fumigatus environmental isolate expressing cyp51A F46Y, G89G, M172V, L358L, C454C mutant gene by CLSI method
[4] = test system: Aspergillus fumigatus; experiment: Antimicrobial activity against itraconazole-resistant Aspergillus fumigatus clinical isolate expressing cyp51A L98H, L339L mutant gene by CLSI method; assay type: functional
[5] = test system: Aspergillus fumigatus; experiment: Antimicrobial activity against itraconazole-resistant Aspergillus fumigatus clinical isolate expressing cyp51A M220K mutant gene by CLSI method; assay type: functional
[6] = test system: Aspergillus fumigatus; experiment: Antimicrobial activity against itraconazole-resistant Aspergillus fumigatus clinical isolate expressing cyp51A M220R mutant gene by CLSI method; assay type: functional
[7] = test system: Aspergillus fumigatus; experiment: Antimicrobial activity against itraconazole-resistant Aspergillus fumigatus clinical isolate expressing cyp51A M220I mutant gene by CLSI method; assay type: functional
[8] = test system: Aspergillus fumigatus; experiment: Antimicrobial activity against itraconazole-susceptible Aspergillus fumigatus clinical isolate expressing cyp51A F46Y, G89G, M172V, L358L, E427K, C454C mutant gene by CLSI method; assay type: functional
[9] = test system: Aspergillus fumigatus; experiment: Antimicrobial activity against itraconazole-resistant Aspergillus fumigatus clinical isolate expressing cyp51A L98H, N125I mutant gene by CLSI method; assay type: functional
[10] = test system: Aspergillus fumigatus; experiment: Antimicrobial activity against itraconazole-susceptible Aspergillus fumigatus clinical isolate expressing cyp51A F46Y, G89G, L358L, E427K, C454C mutant gene by CLSI method; assay type: functional
[11] = test system: Aspergillus fumigatus; experiment: Antimicrobial activity against itraconazole-susceptible Aspergillus fumigatus clinical isolate expressing wild type cyp51A gene by CLSI method; assay type: functional
[12] = test system: Aspergillus fumigatus; experiment: Antimicrobial activity against itraconazole-susceptible Aspergillus fumigatus clinical isolate expressing cyp51A F46Y, M172V, L358L, E427K, C454C mutant gene by CLSI method; assay type: functional
[13] = test system: Aspergillus fumigatus; experiment: Antimicrobial activity against itraconazole-susceptible Aspergillus fumigatus clinical isolate expressing cyp51A S400I mutant gene by CLSI method; assay type: functional
[14] = test system: Aspergillus fumigatus; experiment: Antimicrobial activity against itraconazole-susceptible Aspergillus fumigatus clinical isolate expressing cyp51A E130D mutant gene by CLSI method; assay type: functional
[15] = test system: Aspergillus fumigatus; experiment: Antimicrobial activity against itraconazole-resistant Aspergillus fumigatus clinical isolate expressing cyp51A M220V mutant gene by CLSI method; assay type: functional
[16] = test system: Aspergillus fumigatus; experiment: Antimicrobial activity against itraconazole-resistant Aspergillus fumigatus clinical isolate expressing cyp51A L98H, Q88H mutant gene and by CLSI method; assay type: functional
[17] = test system: Aspergillus fumigatus; experiment: Antimicrobial activity against itraconazole-susceptible Aspergillus fumigatus clinical isolate expressing cyp51A F46Y, G89G, M172V, N248T, D255E, L358L, E427K, C454C mutant gene by CLSI method; assay type: functional
[18] = test system: Aspergillus fumigatus; experiment: Antimicrobial activity against itraconazole-resistant Aspergillus fumigatus clinical isolate expressing cyp51A G138C mutant gene by CLSI method; assay type: functional
[19] = test system: Aspergillus fumigatus; experiment: Antimicrobial activity against itraconazole-susceptible Aspergillus fumigatus clinical isolate expressing cyp51A F46Y, G89G, E427K, C454C mutant gene by CLSI method; assay type: functional
[20] = test system: Aspergillus fumigatus; experiment: Antimicrobial activity against itraconazole-susceptible Aspergillus fumigatus clinical isolate expressing cyp51A F46Y, G89G mutant gene by CLSI method; assay type: functional
[21] = test system: Aspergillus fumigatus; experiment: Antimicrobial activity against itraconazole-resistant Aspergillus fumigatus clinical isolate expressing cyp51A L98H, A284A mutant gene by CLSI method; assay type: functional
[22] = test system: Aspergillus fumigatus; experiment: Antimicrobial activity against itraconazole-resistant Aspergillus fumigatus environmental isolate expressing cyp51A L98H, Q141H mutant gene by CLSI method
[23] = test system: Aspergillus fumigatus; experiment: Antimicrobial activity against itraconazole-susceptible Aspergillus fumigatus clinical isolate expressing cyp51A L252L mutant gene by CLSI method; assay type: functional
[24] = test system: Aspergillus fumigatus; experiment: Antimicrobial activity against itraconazole-resistant Aspergillus fumigatus clinical isolate expressing cyp51A G54W mutant gene by CLSI method; assay type: functional
[25] = test system: Aspergillus fumigatus; experiment: Antimicrobial activity against itraconazole-resistant Aspergillus fumigatus clinical isolate expressing cyp51A F46Y, G89G, M172V, N248T, D255E, L358L, E427K and C454C mutant gene by CLSI method; assay type: functional
[26] = test system: Aspergillus fumigatus; experiment: Antimicrobial activity against itraconazole-resistant Aspergillus fumigatus environmental isolate expressing cyp51A L98H, S52T mutant gene by CLSI method
[27] = test system: Aspergillus fumigatus; experiment: Antimicrobial activity against itraconazole-susceptible Aspergillus fumigatus clinical isolate expressing cyp51A F46Y, G89G, M172V, N248T, D255E, E427K mutant gene by CLSI method; assay type: functional
[28] = test system: Aspergillus fumigatus; experiment: Antimicrobial activity against itraconazole-resistant Aspergillus fumigatus clinical isolate expressing cyp51A G54E mutant gene by CLSI method; assay type: functional
[29] = test system: Aspergillus fumigatus; experiment: Antimicrobial activity against itraconazole-resistant Aspergillus fumigatus clinical isolate expressing cyp51A L98H mutant gene by CLSI method; assay type: functional
[30] = test system: Aspergillus fumigatus; experiment: Antimicrobial activity against itraconazole-resistant Aspergillus fumigatus clinical isolate expressing cyp51A L98H, S297T, F495 mutant gene by CLSI method; assay type: functional

Row | Compound | MIC [1] [µg/mL] | MIC [2] [µg/mL] | MIC [3] [µg/mL] | MIC [4] [µg/mL] | MIC [5] [µg/mL] | MIC [6] [µg/mL] | MIC [7] [µg/mL] | MIC [8] [µg/mL] | MIC [9] [µg/mL] | MIC [10] [µg/mL] | MIC [11] [µg/mL] | MIC [12] [µg/mL] | MIC [13] [µg/mL] | MIC [14] [µg/mL] | MIC [15] [µg/mL] | MIC [16] [µg/mL] | MIC [17] [µg/mL] | MIC [18] [µg/mL] | MIC [19] [µg/mL] | MIC [20] [µg/mL] | other results
1 | C[C@@H](c1ncncc1F)[C@](O)(Cn1cncn1)c1ccc(F)cc1F [VORICONAZOLE] | 2 (≈ 5.73 µM) | 0.25 (≈ 0.716 µM) | 1 (≈ 2.86 µM) | 8 (≈ 22.9 µM) | 2 (≈ 5.73 µM) | 2 (≈ 5.73 µM) | 1 (≈ 2.86 µM) | 0.5 (≈ 1.43 µM) | 8 (≈ 22.9 µM) | 2 (≈ 5.73 µM) | 0.5 (≈ 1.43 µM) | 1 (≈ 2.86 µM) | 2 (≈ 5.73 µM) | 0.5 (≈ 1.43 µM) | 1 (≈ 2.86 µM) | 8 (≈ 22.9 µM) | 0.25 (≈ 0.716 µM) | 8 (≈ 22.9 µM) | 0.25 (≈ 0.716 µM) | 0.5 (≈ 1.43 µM) | MIC [21]: 4 µg/mL (≈ 11.5 µM); MIC [22]: 4 µg/mL (≈ 11.5 µM); MIC [23]: 1 µg/mL (≈ 2.86 µM); MIC [24]: 0.25 µg/mL (≈ 0.716 µM); MIC [25]: > 16 µg/mL; MIC [26]: 4 µg/mL (≈ 11.5 µM); MIC [27]: 1 µg/mL (≈ 2.86 µM); MIC [28]: 0.25 µg/mL (≈ 0.716 µM); MIC [29]: 2 µg/mL (≈ 5.73 µM); MIC [30]: 1 µg/mL (≈ 2.86 µM)
2 | CCC(C)n1ncn(-c2ccc(N3CCN(c4ccc(OCC5COC(Cn6cncn6)(c6ccc(Cl)cc6Cl)O5)cc4)CC3)cc2)c1=O (stereo not given) [ITRACONAZOLE] | > 16 | 8 (≈ 11.3 µM) | 0.25 (≈ 0.354 µM) | > 16 | > 16 | > 16 | > 16 | 0.125 (≈ 0.177 µM) | > 16 | 0.25 (≈ 0.354 µM) | 0.125 (≈ 0.177 µM) | 0.125 (≈ 0.177 µM) | 1 (≈ 1.42 µM) | 0.5 (≈ 0.709 µM) | > 16 | > 16 | 0.25 (≈ 0.354 µM) | > 16 | 0.25 (≈ 0.354 µM) | 0.125 (≈ 0.177 µM) | MIC [21]: > 16 µg/mL; MIC [22]: > 16 µg/mL; MIC [23]: 0.25 µg/mL (≈ 0.354 µM); MIC [24]: > 16 µg/mL; MIC [25]: > 16 µg/mL; MIC [26]: > 16 µg/mL; MIC [27]: 0.25 µg/mL (≈ 0.354 µM); MIC [28]: > 16 µg/mL; MIC [29]: 4 µg/mL (≈ 5.67 µM); MIC [30]: 16 µg/mL (≈ 22.7 µM)
3 | CC[C@@H]([C@H](C)O)n1ncn(-c2ccc(N3CCN(c4ccc(OC[C@@H]5CO[C@@](Cn6cncn6)(c6ccc(F)cc6F)C5)cc4)CC3)cc2)c1=O [POSACONAZOLE] | 0.125 (≈ 0.178 µM) | 0.125 (≈ 0.178 µM) | 0.125 (≈ 0.178 µM) | 1 (≈ 1.43 µM) | > 16 | 2 (≈ 2.85 µM) | 0.5 (≈ 0.713 µM) | 0.063 (≈ 0.0899 µM) | 0.5 (≈ 0.713 µM) | 0.063 (≈ 0.0899 µM) | 0.031 (≈ 0.0442 µM) | 0.063 (≈ 0.0899 µM) | 0.25 (≈ 0.357 µM) | 0.125 (≈ 0.178 µM) | 0.5 (≈ 0.713 µM) | 0.25 (≈ 0.357 µM) | 0.063 (≈ 0.0899 µM) | > 16 | 0.063 (≈ 0.0899 µM) | 0.016 (≈ 0.0228 µM) | MIC [21]: 0.5 µg/mL (≈ 0.713 µM); MIC [22]: 0.5 µg/mL (≈ 0.713 µM); MIC [23]: 0.5 µg/mL (≈ 0.713 µM); MIC [24]: > 16 µg/mL; MIC [25]: 1 µg/mL (≈ 1.43 µM); MIC [26]: 0.5 µg/mL (≈ 0.713 µM); MIC [27]: 0.063 µg/mL (≈ 0.0899 µM); MIC [28]: 0.25 µg/mL (≈ 0.357 µM); MIC [29]: 0.25 µg/mL (≈ 0.357 µM); MIC [30]: 0.063 µg/mL (≈ 0.0899 µM)
